The target of experiment [1] is T1, FSHR (Homo sapiens, UniProt P23945).
T1 construct: expressed in transfected cells; host or cells: CHO (Cho-FSHR-LUC-1-1-43)
T1 sequence (P23945 18-695): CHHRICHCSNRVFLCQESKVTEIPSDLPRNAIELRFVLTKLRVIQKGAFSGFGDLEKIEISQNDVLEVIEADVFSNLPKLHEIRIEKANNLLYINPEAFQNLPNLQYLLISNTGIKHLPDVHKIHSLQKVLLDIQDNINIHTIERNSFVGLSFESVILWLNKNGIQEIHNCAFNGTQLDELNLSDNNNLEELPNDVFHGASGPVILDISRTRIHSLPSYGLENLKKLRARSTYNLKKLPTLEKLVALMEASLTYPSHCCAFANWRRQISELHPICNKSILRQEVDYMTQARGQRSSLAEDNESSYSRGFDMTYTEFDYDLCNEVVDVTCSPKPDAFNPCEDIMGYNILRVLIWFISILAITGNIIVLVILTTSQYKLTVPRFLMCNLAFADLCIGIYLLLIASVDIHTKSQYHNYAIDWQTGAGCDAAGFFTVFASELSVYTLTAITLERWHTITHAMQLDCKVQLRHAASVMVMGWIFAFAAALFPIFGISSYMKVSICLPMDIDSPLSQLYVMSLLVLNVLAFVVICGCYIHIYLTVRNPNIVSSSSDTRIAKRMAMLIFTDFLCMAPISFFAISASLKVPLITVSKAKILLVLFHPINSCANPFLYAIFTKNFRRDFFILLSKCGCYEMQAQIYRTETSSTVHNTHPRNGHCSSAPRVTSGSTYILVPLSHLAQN
Put plainly: EC50 of cyclic AMP production in CHO FSHR cells + EC20 FSH (Assay A). It is filed as cell-based. The conditions noted are these: cyclic AMP production in CHO FSHR cells + EC20 FSH (0.265 pM), HTRF. The procedure, abridged: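 cAMP was detected by HTRF as the 665/620 nm ratio. The CHO-FSHR cells had first been exposed for 1 h at 37° C to test compound together with 0.265 pM FSH (EC20) and 200 μM IBMX. Responses are given as percent of the FSH standard maximum.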

The target in experiment [2] is T2, follicle-stimulating hormone (FSH) receptor (Rattus norvegicus, UniProt P20395).
T2 construct: endogenous in cells; host or cells: rat granulosa cells
T2 sequence (P20395 18-692): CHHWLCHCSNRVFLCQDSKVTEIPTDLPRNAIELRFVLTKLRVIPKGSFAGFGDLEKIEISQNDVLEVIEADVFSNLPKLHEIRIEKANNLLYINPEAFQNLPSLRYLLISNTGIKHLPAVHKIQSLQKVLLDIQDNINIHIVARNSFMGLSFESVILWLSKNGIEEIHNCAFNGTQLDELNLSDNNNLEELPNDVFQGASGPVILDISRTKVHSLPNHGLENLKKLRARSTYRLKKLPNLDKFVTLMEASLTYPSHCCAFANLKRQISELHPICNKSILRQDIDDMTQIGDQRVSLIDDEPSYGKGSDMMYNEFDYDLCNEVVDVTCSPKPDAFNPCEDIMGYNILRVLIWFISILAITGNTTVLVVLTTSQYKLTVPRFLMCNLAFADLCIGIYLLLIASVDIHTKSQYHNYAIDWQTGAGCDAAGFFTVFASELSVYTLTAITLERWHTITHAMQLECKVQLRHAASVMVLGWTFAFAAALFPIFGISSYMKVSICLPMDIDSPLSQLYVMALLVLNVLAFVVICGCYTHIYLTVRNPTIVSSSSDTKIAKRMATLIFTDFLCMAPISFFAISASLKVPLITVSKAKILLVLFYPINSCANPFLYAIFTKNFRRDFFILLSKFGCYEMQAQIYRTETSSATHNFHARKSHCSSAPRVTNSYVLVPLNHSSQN
Nature of the experiment: Rat granulosa EC50 FSH (Assay B). The format is cell-based. As to the method:
Example 25. Rat granulosa EC50 FSH (Assay B)
The assay was performed pursuant to the teaching of Yanofsky et al. (2006) Allosteric activation of the follicle-stimulating hormone (FSH) receptor by selective, nonpeptide agonists (JBC 281(19): 13226-13233, which is incorporated by reference in the disclosure of the invention).

This note sets out measurements from patent US10941152B2, “Pyrazole compounds as modulators of FSHR and uses thereof” (TOCOPHERX, INC., priority 2014, dated 2021).

A value given as a limit tells only on which side of the number the result lay.

As for `[2H]C([2H])([2H])Oc1cc(Cl)cc(-n2nc(C(=O)N(C)C(C)(C)C)c3c2-c2cc(-c4cncc(C#N)c4)c(OC([2H])([2H])[2H])cc2OC3)c1` [Compound 36, N-tert-butyl-1-(3-chloro-5-D3-methoxyphenyl)-8-(5-cyanopyridin-3-yl)-7-D3-methoxy-N-methyl-1H,4H-chromeno[4,3-c]pyrazole-3-carboxamide], the figures for the EC50 in experiment [1] and in experiment [2] were under 10 nM and 10 to 100 nM, respectively.
Regarding `COc1cc2c(cc1-c1ccn(C)n1)-c1c(c(C(=O)N3CCOCC3(C)C)nn1-c1cc(C)cc(Cl)c1)CO2` [Compound 31, (1-(3-chloro-5-methylphenyl)-7-methoxy-8-(1-methyl-1H-pyrazol-3-yl)-1,4-dihydrochromeno[4,3-c]pyrazol-3-yl)(3,3-dimethylmorpholino)methanone], the EC50 lay in the range of 10 to 100 nM in experiment [1] and 101 to 500 nM in experiment [2].
As for `COc1cc2c(cc1-c1ccccn1)-c1c(c(C(=O)N3CCC(O)CC3(C)C)nn1-c1cc(Cl)cc(Cl)c1)CO2` (stereo not shown) [Compound 102, (1-(3,5-dichlorophenyl)-7-methoxy-8-(pyridin-2-yl)-1,4-dihydrochromeno[4,3-c]pyrazol-3-yl)(4-hydroxy-2,2-dimethylpiperidin-1-yl)methanone], the EC50 in experiment [1] was under 10 nM; in experiment [2] it was 10 to 100 nM.
Regarding `COc1cc2c(cc1-c1cccc(O)c1)-c1c(c(C(=O)N(C)C(C)(C)C)nn1-c1cc(Cl)cc(Cl)c1)CO2` [Compound 22, N-tert-butyl-1-(3,5-dichlorophenyl)-8-(3-hydroxyphenyl)-7-methoxy-N-methyl-1,4-dihydrochromeno[4,3-c]pyrazole-3-carboxamide], the EC50 was under 10 nM in experiment [1] and 10 to 100 nM in experiment [2].
On the same counts, the results for `COc1cc2c(cc1-c1nccnc1C#N)-c1c(c(C(=O)N(C)C(C)(C)C)nn1-c1cc(Cl)cc(Cl)c1)CO2` [Compound 112, N-tert-butyl-8-(3-cyanopyrazin-2-yl)-1-(3,5-dichlorophenyl)-7-methoxy-N-methyl-1,4-dihydrochromeno[4,3-c]pyrazole-3-carboxamide] are 10 to 100 nM and 101 to 500 nM.
On to `COc1cc(F)cc(-n2nc(C(=O)N3CCOCC3(C)C)c3c2-c2cc(-c4cnn(CC(=O)O)c4)c(OC)cc2OC3)c1` [Compound 89, 2-(4-(3-(3,3-dimethylmorpholine-4-carbonyl)-1-(3-fluoro-5-methoxyphenyl)-7-methoxy-1,4-dihydrochromeno[4,3-c]pyrazol-8-yl)-1H-pyrazol-1-yl)acetic acid], for which the figures for the EC50 in experiment [1] and in experiment [2] were under 10 nM and 101 to 500 nM, respectively.
Regarding `COc1cc2c(cc1-c1ccn(C)n1)-c1c(c(C(=O)N3CC[S+]([O-])CC3(C)C)nn1-c1ccsc1)CO2` (stereo not shown) [Compound 56, (1-(thiophen-3-yl)-7-methoxy-8-(1-methyl-1H-pyrazol-3-yl)-1,4-dihydrochromeno[4,3-c]pyrazol-3-yl)(S-oxo-3,3-dimethylthiomorpholino)methanone], the values for the EC50 in experiment [1] and in experiment [2] were 10 to 100 nM and 101 to 500 nM, respectively.
For the compound `COc1cc2c(cc1-c1cnn(CC(N)=O)c1)-c1c(c(C(=O)N(C)C(C)(C)C)nn1-c1cc(Cl)cc(Cl)c1)CO2` [Compound 67, 8-(1-(2-amino-2-oxoethyl)-1H-pyrazol-4-yl)-N-tert-butyl-1-(3,5-dichlorophenyl)-7-methoxy-N-methyl-1,4-dihydrochromeno[4,3-c]pyrazole-3-carboxamide], the EC50 is under 10 nM in experiment [1] and 101 to 500 nM in experiment [2].
On the same counts, the results for `COc1cc2c(cc1-c1nn(C)cc1Cl)-c1c(c(C(=O)N3CCOCC3(C)C)nn1-c1cc(F)cc(F)c1)CO2` [Compound 151] are under 10 nM and 10 to 100 nM.
On the same counts, the results for `COc1cc2c(cc1-c1ccn(C)n1)-c1c(c(C(=O)N(C)C(C)(C)C)nn1-c1cc(F)cc(F)c1)CO2` [Compound 48, N-tert-butyl-1-(3,5-difluorophenyl)-7-methoxy-N-methyl-8-(1-methyl-1H-pyrazol-3-yl)-1,4-dihydrochromeno[4,3-c]pyrazole-3-carboxamide] are 10 to 100 nM and 101 to 500 nM.
For `COc1cc(OC)cc(-n2nc(C(=O)N(C)C(C)(C)CCO)c3c2-c2cc(-c4ccn(C)n4)c(OC)cc2OC3)c1` [Compound 134, 1-(3,5-dimethoxyphenyl)-N-(4-hydroxy-2-methylbutan-2-yl)-7-methoxy-N-methyl-8-(1-methyl-1H-pyrazol-3-yl)-1,4-dihydrochromeno[4,3-c]pyrazole-3-carboxamide], the EC50 in experiment [1] is 10 to 100 nM; in experiment [2], over 500 nM.
With `COc1cc2c(cc1-c1nn(C)cc1C#N)-c1c(c(C(=O)N(C)C(C)(C)C)nn1-c1cc(F)cc(F)c1)CO2` [Compound 149], the results for the EC50 in experiment [1] and in experiment [2] were under 10 nM and 10 to 100 nM, respectively.
On to `COc1cc2c(cc1-c1cc(C(N)=O)ccn1)-c1c(c(C(=O)N(C)C(C)(C)C)nn1-c1cc(Cl)cc(Cl)c1)CO2` [Compound 113, N-tert-butyl-8-(4-carbamoylpyridin-2-yl)-1-(3,5-dichlorophenyl)-7-methoxy-N-methyl-1,4-dihydrochromeno[4,3-c]pyrazole-3-carboxamide], for which the EC50 is under 10 nM in experiment [1] and 10 to 100 nM in experiment [2].
On the same counts, the results for `COc1cc2c(cc1-c1cccc(C(N)=O)c1)-c1c(c(C(=O)N(C)C(C)(C)C)nn1-c1cc(Cl)cc(Cl)c1)CO2` [Compound 172] are under 10 nM and 10 to 100 nM.
For `COc1cc(OC)cc(-n2nc(C(=O)N(C)C(C)(C)C)c3c2-c2cc(-c4cc(C(N)=O)c[n+]([O-])c4)c(OC)cc2OC3)c1` [Compound 175], the EC50 in experiment [1] was under 10 nM; in experiment [2], 10 to 100 nM.
For the compound `COc1cc2c(cc1-c1cccc(F)c1C#N)-c1c(c(C(=O)N(C)C(C)(C)C)nn1-c1cc(Cl)cc(Cl)c1)CO2` [Compound 25, N-tert-butyl-8-(2-cyano-3-fluorophenyl)-1-(3,5-dichlorophenyl)-7-methoxy-N-methyl-1,4-dihydrochromeno[4,3-c]pyrazole-3-carboxamide], the results for the 50% effective concentration (EC50) in experiment [1] and in experiment [2] were under 10 nM and 10 to 100 nM, respectively.
With `COc1cc2c(cc1-c1ccn(C)n1)-c1c(c(C(=O)N(C)C(C)(C)C)nn1-c1cc(F)cc(Cl)c1)CO2` [Compound 27, N-tert-butyl-1-(3-chloro-5-fluorophenyl)-7-methoxy-N-methyl-8-(1-methyl-1H-pyrazol-3-yl)-1,4-dihydrochromeno[4,3-c]pyrazole-3-carboxamide], the values for the EC50 in experiment [1] and in experiment [2] were 10 to 100 nM and over 500 nM, respectively.
`COc1cc2c(cc1-c1cc(C(N)=O)ncc1F)-c1c(c(C(=O)N(C)C(C)(C)C)nn1-c1cc(F)cc(F)c1)CO2` [Compound 70, N-tert-butyl-8-(2-carbamoyl-5-fluoropyridin-4-yl)-1-(3,5-difluorophenyl)-7-methoxy-N-methyl-1,4-dihydrochromeno[4,3-c]pyrazole-3-carboxamide]: the EC50 in experiment [1] was under 10 nM; in experiment [2] it was 10 to 100 nM.
On to `COc1cc2c(cc1-c1cc(C#N)c[n+]([O-])c1)-c1c(c(C(=O)N3CCOCC3(C)C)nn1-c1cc(Cl)cc(Cl)c1)CO2` [Compound 177], for which the EC50 is under 10 nM in experiment [1] and 10 to 100 nM in experiment [2].
With `COCC1(CC(C)C)CCCN1C(=O)c1nn(-c2ccsc2)c2c1COc1cc(OC)c(-c3ccn(C)n3)cc1-2` (stereo not shown) [Compound 127, (2-isobutyl-2-(methoxymethyl)pyrrolidin-1-yl)(7-methoxy-8-(1-methyl-1H-pyrazol-3-yl)-1-(thiophen-3-yl)-1,4-dihydrochromeno[4,3-c]pyrazole-3-yl)methanone], the EC50 in experiment [1] fell in the range of 10 to 100 nM; in experiment [2], 101 to 500 nM.
